Laboratory results as given in PubChem BioAssay (NCI).
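1) Cells in 96-well plates. 2) Compound, 48 h, 5 concentrations. 3) Linear interpolation between surrounding doses. 4) Unreached endpoint = highest concentration. At the GI50, growth is halved. TGI: total growth inhibition.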

Legend:
Experiment in all cases: NCI-60 cell line screen, 48 h
A498 renal = system: A498 renal
COLO 205 colon = system: COLO 205 colon
OVCAR-5 ovarian = system: OVCAR-5 ovarian
NCI-H226 lung = system: NCI-H226 lung
SNB-19 CNS = system: SNB-19 CNS
MCF7 breast = system: MCF7 breast
EKVX NSCLC = system: EKVX NSCLC
SK-MEL-5 melanoma = system: SK-MEL-5 melanoma
SF-539 CNS = system: SF-539 CNS
HL-60(TB) leukemia = system: HL-60(TB) leukemia
MOLT-4 leukemia = system: MOLT-4 leukemia
HCC-2998 colon = system: HCC-2998 colon
UO-31 renal = system: UO-31 renal
A549 NSCLC = system: A549 NSCLC
NCI-H460 lung = system: NCI-H460 lung
MDA-MB-231 breast = system: MDA-MB-231 breast
MDA-MB-435 = system: MDA-MB-435
RXF 393 renal = system: RXF 393 renal
HS 578T breast = system: HS 578T breast
M14 melanoma = system: M14 melanoma
LOX IMVI melanoma = system: LOX IMVI melanoma
TK-10 renal = system: TK-10 renal
U251 CNS = system: U251 CNS
NCI-H522 lung = system: NCI-H522 lung
SK-MEL-28 melanoma = system: SK-MEL-28 melanoma
NCI/ADR-RES ovarian = system: NCI/ADR-RES ovarian
UACC-257 melanoma = system: UACC-257 melanoma
SR leukemia = system: SR leukemia
KM12 colon = system: KM12 colon
OVCAR-8 ovarian = system: OVCAR-8 ovarian
CAKI-1 renal = system: CAKI-1 renal
SF-295 CNS = system: SF-295 CNS
OVCAR-3 ovarian = system: OVCAR-3 ovarian
SN12C renal = system: SN12C renal
SNB-75 CNS = system: SNB-75 CNS
SK-OV-3 ovarian = system: SK-OV-3 ovarian
HCT-116 colon = system: HCT-116 colon
OVCAR-4 ovarian = system: OVCAR-4 ovarian
MALME-3M melanoma = system: MALME-3M melanoma
DU-145 prostate = system: DU-145 prostate
786-0 renal = system: 786-0 renal
SW-620 colon = system: SW-620 colon
HCT-15 colon = system: HCT-15 colon
ACHN renal = system: ACHN renal
IGROV1 ovarian = system: IGROV1 ovarian
UACC-62 melanoma = system: UACC-62 melanoma
HOP-62 NSCLC = system: HOP-62 NSCLC
T-47D breast = system: T-47D breast
SK-MEL-2 melanoma = system: SK-MEL-2 melanoma
BT-549 breast = system: BT-549 breast
PC-3 prostate = system: PC-3 prostate
HOP-92 NSCLC = system: HOP-92 NSCLC

COc1cc2c3c(n(CCCNC4CCCC4)c(=O)c2cc1OC)-c1cc2c(cc1C3=O)OCO2
GI50 (A498 renal): 15.9 µM
TGI (A498 renal): 29.7 µM
GI50 (COLO 205 colon): 1350 nM
TGI (COLO 205 colon): 15.4 µM
GI50 (OVCAR-5 ovarian): 2460 nM
TGI (OVCAR-5 ovarian): 5.56 µM
GI50 (NCI-H226 lung): 17.8 µM
TGI (NCI-H226 lung): 42 µM
GI50 (SNB-19 CNS): 2960 nM
TGI (SNB-19 CNS): 25.5 µM
GI50 (MCF7 breast): 673 nM
TGI (MCF7 breast): 2320 nM
GI50 (EKVX NSCLC): 4.64 µM
TGI (EKVX NSCLC): 17 µM
GI50 (SK-MEL-5 melanoma): 17.3 µM
TGI (SK-MEL-5 melanoma): 31.2 µM
GI50 (SF-539 CNS): 1510 nM
TGI (SF-539 CNS): 2980 nM
GI50 (HL-60(TB) leukemia): 1020 nM
TGI (HL-60(TB) leukemia): 2660 nM
GI50 (MOLT-4 leukemia): 48.6 nM
TGI (MOLT-4 leukemia): 3.37 µM
GI50 (HCC-2998 colon): 3.45 µM
TGI (HCC-2998 colon): 15.7 µM
GI50 (UO-31 renal): 1660 nM
TGI (UO-31 renal): 4.21 µM
GI50 (A549 NSCLC): 7.46 µM
TGI (A549 NSCLC): 25.8 µM
GI50 (NCI-H460 lung): 446 nM
TGI (NCI-H460 lung): 1980 nM
GI50 (MDA-MB-231 breast): 1570 nM
TGI (MDA-MB-231 breast): 3.29 µM
GI50 (MDA-MB-435): 1650 nM
TGI (MDA-MB-435): 3.19 µM
GI50 (RXF 393 renal): 3.83 µM
TGI (RXF 393 renal): 15.5 µM
GI50 (HS 578T breast): 19.9 µM
TGI (HS 578T breast): 81 µM
GI50 (M14 melanoma): 1480 nM
TGI (M14 melanoma): 2900 nM
GI50 (LOX IMVI melanoma): 1030 nM
TGI (LOX IMVI melanoma): 2330 nM
GI50 (TK-10 renal): 22 µM
TGI (TK-10 renal): 36.8 µM
GI50 (U251 CNS): 1270 nM
TGI (U251 CNS): 2570 nM
GI50 (NCI-H522 lung): 5.26 µM
TGI (NCI-H522 lung): 32 µM
GI50 (SK-MEL-28 melanoma): 15.8 µM
TGI (SK-MEL-28 melanoma): 30.6 µM
GI50 (NCI/ADR-RES ovarian): 2250 nM
TGI (NCI/ADR-RES ovarian): 15.7 µM
GI50 (UACC-257 melanoma): 15.8 µM
TGI (UACC-257 melanoma): 30.3 µM
GI50 (SR leukemia): 133 nM
TGI (SR leukemia): 583 nM
GI50 (KM12 colon): 11 µM
TGI (KM12 colon): 25.2 µM
GI50 (OVCAR-8 ovarian): 1450 nM
TGI (OVCAR-8 ovarian): 2980 nM
GI50 (CAKI-1 renal): 1240 nM
TGI (CAKI-1 renal): 2500 nM
GI50 (SF-295 CNS): 628 nM
TGI (SF-295 CNS): 21.7 µM
GI50 (OVCAR-3 ovarian): 1640 nM
TGI (OVCAR-3 ovarian): 3.31 µM
GI50 (SN12C renal): 1800 nM
TGI (SN12C renal): 4.3 µM
GI50 (SNB-75 CNS): 13.8 µM
TGI (SNB-75 CNS): 27.3 µM
GI50 (SK-OV-3 ovarian): 12.7 µM
TGI (SK-OV-3 ovarian): 26.4 µM
GI50 (HCT-116 colon): 1200 nM
TGI (HCT-116 colon): 2670 nM
GI50 (OVCAR-4 ovarian): 1910 nM
TGI (OVCAR-4 ovarian): 3.99 µM
GI50 (MALME-3M melanoma): 1690 nM
TGI (MALME-3M melanoma): 3.27 µM
GI50 (DU-145 prostate): 1440 nM
TGI (DU-145 prostate): 2820 nM
GI50 (786-0 renal): 1610 nM
TGI (786-0 renal): 3.24 µM
GI50 (SW-620 colon): 1090 nM
TGI (SW-620 colon): 2440 nM
GI50 (HCT-15 colon): 1590 nM
TGI (HCT-15 colon): 3.43 µM
GI50 (ACHN renal): 1490 nM
TGI (ACHN renal): 2840 nM
GI50 (IGROV1 ovarian): 1400 nM
TGI (IGROV1 ovarian): 3.65 µM
GI50 (UACC-62 melanoma): 13 µM
TGI (UACC-62 melanoma): 30.2 µM
GI50 (HOP-62 NSCLC): 2380 nM
TGI (HOP-62 NSCLC): 20.9 µM
GI50 (T-47D breast): 16.6 µM
TGI (T-47D breast): 36.2 µM
GI50 (SK-MEL-2 melanoma): 19 µM
TGI (SK-MEL-2 melanoma): 35.6 µM
GI50 (BT-549 breast): 13.8 µM
TGI (BT-549 breast): 27.3 µM
GI50 (PC-3 prostate): 10.3 µM
TGI (PC-3 prostate): 31.9 µM
GI50 (HOP-92 NSCLC): 12.5 µM
TGI (HOP-92 NSCLC): 26.1 µM
